Assay [1] deals with primary astrocytes. As to the kind of experiment: Intracellular glycogen quantification. In kind it is cell-based, mouse. The conditions noted are these: CDC54K hits, 10 μM, 3 h. How it is done:
For glycogen dosage, a protein dosage was first performed in order to assess whether harvested astrocytes from primary cell cultures yielded enough and equivalent amounts of proteins comparing each replicate, and to ensure that the obtained differences in glycogen quantities were due to drug action and not to inner protein quantities.
Astrocytes used for these dosages were previously grown in 6-well plates for 17 days and stimulated with Vehicle (DMSO) or drug of interest (1 μM to 100 μM) for 180 min, at 37° C. 5% CO2/95% air in D5030 complete medium. Medium was removed and replaced with 600 μl of 30 mM Tris HCl, and stored at −20° C.
Proteins were dosed using the micro BCA Protein Assay kit (Thermo Scientific), as described in the manufacturer's instructions. Briefly, thawed cells were sonicated and 5 μl aliquots were placed in a transparent 96-well plate, to which we added 25 μl 30 mM Tris HCl, 70 μl H2O and 100 μl of a BCA mix (made as described in manufacturer's guidelines). After a 120 min-incubation at 37° C., absorbance was measured with Safire 2 spectrophotometer at a wavelength of 562 nm, and protein quantities were determined from a standard curve of Bovine Serum Albumin (BSA).
Glycogen was quantified using a 250 μl-aliquot of the same stimulated, thawed, and sonicated cells. After an incubation period of 30 min at 90° C. and 400 rpm, 28 μl of an acetic acid/sodium acetate (both from Sigma) 0.1M pH 4.6 buffer was added to each aliquot, which was then separated in two. Each split aliquot received whether 5 μl of amyloglucosidase (Roche) or 5 μl H2O, and all cell solutions were incubated for 120 min in a shaking 37° C.-waterbath. After a centrifugation at 16'000G for 5 min, 20 μl of supernatant were placed 96-well plate, to which 150 μl of a mix containing 0.67 mM ATP (Roche), 0.67 mM NADP (Roche), 1.8% hexokinase/glucose-6-phosphate dehydrogenase (Roche) and 0.1M Tris Buffer-HCl/3.3 mM magnesium (Fluka)/pH 8.1 buffer was added. Fluorescence was measured with Safire 2 spectrophotometer (340 nm excitation/440 nm emission). Glycogen concentration was obtained by substracting glucose value of samples with amyloglucosidase to samples without amyloglucosidase, and were expressed relative to the amount of proteins previously determined.
Levels of intracellular glycogen in astrocytes were measured at 3 h after stimulation with 20 Hits from the Prestwick library (10 μM each), as shown in FIG. 2. n=6-10; Ctrl pos. is glutamate (0.5 mM). Statistical analysis consisted in ANOVA followed by Fisher LSD post-hoc test for pair-wise comparisons.
Statistical analysis consisted in ANOVA followed by Fisher LSD post-hoc test for pair-wise comparisons.

Assay [2] relates to primary astrocytes. As to the kind of experiment: High throughput screening (HTS) for lactate secretion: acidification of extracellular medium (SNARF5). In kind it is cell-based, mouse. Set-up: key to Score / HTS Score (SNARF5) / Score_SNARF: fraction of plate positive-control activity (1 = 100%). To be noted: for Score / Score_SNARF: Appendix I; for Score: CDC54K primary screening, relative to CCCP 2 uM; for Score / HTS Score (SNARF5): 10 uM, 90 min; for Score_SNARF: primary screening confirmation (SNARF5); for HTS Score (SNARF5): CDC54K library, relative to positive control CCCP 2 uM. The procedure, abridged: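 Mouse primary cortical astrocytes (DIV17) exposed to compounds at 10 uM final (1% DMSO) for 90 min in low-bicarbonate medium with SNARF-5F. Extracellular pH from 630/580 nm emission ratio (ex 480 nm); hits scored as % of CCCP 2 uM positive control, duplicate plates.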

The structures appear in SMILES notation.

Results on twelve molecules are retold here after patent US12310967B2, “Compositions and methods of treatment for neurological disorders comprising motor neuron diseases” (Gliapharm SA, priority 2017, dated 2025).

Consider `Cc1ccccc1NC(=O)C1CCCN(c2ncnc3oc(C)c(C)c23)C1` (stereo not drawn) [F228-0422], for which, in assay [1], the “Glycogen (statistical significance of glycogen degradation)” value was “** (** p<0.01)”. In assay [2], the Score was 1.057, the Score_SNARF is 0.7702 and the “HTS Score (SNARF5)” value came to 1.058.
In the same order, the values of `CCc1nc(-c2csc(S(=O)(=O)NCc3ccc4c(c3)OCO4)c2)no1` [L287-0468] are “** (** p<0.01)”, 0.5971, 0.6592 and 0.597.
In the same order, the values of `CCn1nccc1-c1csc(S(=O)(=O)Nc2ccc(Cl)cc2F)c1` [L924-1031] are “** (** p<0.01)”, 0.9286, 0.8713 and 0.929.
For the molecule `CSc1cccc(NS(=O)(=O)c2ccc3onc(C(=O)N4CCCC4)c3c2)c1` [L995-0125], the “Glycogen (statistical significance of glycogen degradation)” value in assay [1] was “ns”. Besides, in assay [2], the Score was 0.8545, the Score_SNARF turned out to be 0.8016 and the “HTS Score (SNARF5)” value is reported as 0.854.
Regarding `CC(=O)N1CCc2sc(S(=O)(=O)N3CCN(c4ccccc4C)CC3)cc2C1` [P025-0159], the “Glycogen (statistical significance of glycogen degradation)” value in assay [1] is “ns”. In assay [2], the Score stood at 0.9535, the Score_SNARF amounted to 0.8007 and the “HTS Score (SNARF5)” value is reported as 0.953.
As to `c1ccc2c(c1)CCN(c1ncnc3sccc13)C2` [T0517-8250], the “Glycogen (statistical significance of glycogen degradation)” value in assay [1] was “ns”. Also, the Score_SNARF in assay [2] was 0.9124.
Take `N#Cc1ccc(C(=O)N2CCC(Nc3ncnc4c3CCC4)C2)cc1` (stereo not drawn) [T636-2387]: the “Glycogen (statistical significance of glycogen degradation)” value in assay [1] is recorded as “ns”. In assay [2], the Score_SNARF is on record as 0.4809 and the “HTS Score (SNARF5)” value amounted to 0.445.
`CCc1ccc(S(=O)(=O)N2CCSC2c2ccc(OC)c(OC)c2)cc1` (stereo not drawn) [T5463586]: the “Glycogen (statistical significance of glycogen degradation)” value in assay [1] is recorded as “*** (*** p<0.001)”. In assay [2], the Score was 0.7707, the Score_SNARF was found to be 0.5553 and the “HTS Score (SNARF5)” value is 0.77.
In the same order, the values of `COc1cc(C)c(Cl)cc1S(=O)(=O)NCc1ccncc1` [T5580243] are “ns”, 0.8528, 0.8565 and 0.853.
Turning to `CCc1ccc(S(=O)(=O)Nc2ccc3[nH]ncc3c2)cc1` [T5599014], the “Glycogen (statistical significance of glycogen degradation)” value in assay [1] is “ns”. Further, in assay [2], the Score worked out at 0.5424, the Score_SNARF stood at 0.5778 and the “HTS Score (SNARF5)” value is 0.542.
Taken in the same sequence, the figures for `O=C1CCCN1c1ccc(S(=O)(=O)Nc2cccc(/C=C/c3ccccn3)c2)cc1` [T5644989] were “** (** p<0.01)”, 0.6796, 0.8385 and 0.68.
Taken in the same sequence, the figures for `Cc1nc2ccc(NS(=O)(=O)c3cccc(F)c3)cc2s1` [T6937001] were “ns”, 0.8094, 0.8557 and 0.809.
